Measured values from US8841291B2, “Selective hydroxamic acid based MMP-12 and MMP-13 inhibitors” (Novartis AG, priority 2008, dated 2014).
Where two headings read alike, the source gives them in different places.

What was measured:
Gelatinase (MMP-2) = target: T1, Gelatinase (MMP-2) (Homo sapiens, UniProt P08253); assay: Gelatinase (MMP-2) inhibitory activity, fluorogenic peptide substrate assay; format: biochemical
T1 sequence (P08253 110-660): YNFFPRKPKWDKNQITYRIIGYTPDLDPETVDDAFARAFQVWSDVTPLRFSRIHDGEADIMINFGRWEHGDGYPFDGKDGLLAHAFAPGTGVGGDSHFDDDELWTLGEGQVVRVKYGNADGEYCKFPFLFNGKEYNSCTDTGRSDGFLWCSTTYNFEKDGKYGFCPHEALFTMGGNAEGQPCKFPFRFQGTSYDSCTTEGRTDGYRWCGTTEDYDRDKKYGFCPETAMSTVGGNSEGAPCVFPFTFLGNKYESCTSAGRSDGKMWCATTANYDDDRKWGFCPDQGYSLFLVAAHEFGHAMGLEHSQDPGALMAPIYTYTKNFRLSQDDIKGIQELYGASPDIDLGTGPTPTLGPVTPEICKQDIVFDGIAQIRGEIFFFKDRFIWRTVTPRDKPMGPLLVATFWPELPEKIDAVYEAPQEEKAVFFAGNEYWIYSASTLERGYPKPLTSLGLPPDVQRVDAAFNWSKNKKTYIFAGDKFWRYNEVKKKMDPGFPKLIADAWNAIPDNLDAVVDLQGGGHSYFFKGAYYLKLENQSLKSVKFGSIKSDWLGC
Experimental: (§1) Stock solutions of inhibitors (0.03 mM-3 mM) are also prepared in DMSO. The inhibitors are diluted into the assay solutions, and the controls use an equal volume of DMSO so that the final DMSO concentration from the inhibitor and substrate dilutions in all assays is 1.0%. Assays are performed in an assay buffer (100 mM sodium chloride, 10 μM ZnCl. Sub 2, 10 mM CaCl2, 100 mM Tris-Cl pH7.5, 0.05% Brij-35), containing 1.0% DMSO from the substrate and inhibitor additions. The substrate concentration used in the assays is 5 μM. The assays are carried out at 20-25° C. […] The reaction mixtures are added in duplicate into appropriate wells of a 384-well assay plate. The reaction mixtures are preincubated with the inhibitors for 60 minutes The reactions are started by the addition of MMP substrate, and the fluorescence intensity changes are measured after 60 minutes The apparent enzyme activity in the presence of an inhibitor is then compared with that in the absence of any inhibitor to determine the inhibition effect of the inhibitor.

Collagenase-3 (MMP-13) = Collagenase-3 (MMP-13) (Homo sapiens, UniProt P45452); assay: Collagenase-3 (MMP-13) inhibitory activity, fluorogenic peptide substrate assay; format: biochemical
Experimental: as §1
Collagenase-3 (MMP-13) inhibitory activity is determined as described above. Recombinant pro-collagenase-3 is activated with 1 mM APMA, and stored in the assay buffer after extensive dialysis in the assay buffer.

[1] = substrate 5 μM, 60 min preincubation, 20-25° C., read-out: MMP2 IC50
[2] = recombinant pro-collagenase-3 activated with 1 mM APMA, read-out: MMP13 IC50

| SMILES | IC50 (Gelatinase (MMP-2); [1]) [µM] | IC50 (Collagenase-3 (MMP-13); [2]) [µM] | IC50 (Gelatinase (MMP-2); read-out: IC50 (Gelatinase (MMP-2) inhibitory activity)) [µM] | IC50 (Collagenase-3 (MMP-13); read-out: IC50 (Collagenase-3 (MMP-13) inhibitory activity)) [µM] |
| --- | --- | --- | --- | --- |
| CC(C)CCNc1ccc2ccc(S(=O)(=O)N(CCC(C)C)[C@@H](C(=O)NO)C(C)C)cc2c1 [Example 57, N-Hydroxy-3-methyl-2-{(3-methyl-butyl)-[7-(3-methyl-butylamino)-naphthalene-2-sulfonyl]-amino}-butyramide] | > 3 | 1.58 | – | – |
| CC1=CC[C@H](C(=O)NO)N(S(=O)(=O)c2ccc3ccccc3c2)C1 [Example 60, (R)-5-Methyl-1-(naphthalene-2-sulfonyl)-1,2,3,6-tetrahydro-pyridine-2-carboxylic acid hydroxyamide] | 0.0125 | 0.0009 | – | – |
| O=C(NO)[C@H]1CC=CCN1S(=O)(=O)c1ccc2ncccc2c1 [Example 63, (R)-1-(Quinoline-6-sulfonyl)-1,2,3,6-tetrahydro-pyridine-2-carboxylic acid hydroxyamide] | 0.0547 | 0.0105 | – | – |
| CC(C)CCN(C1(C(=O)NO)CCCC1)S(=O)(=O)c1ccc2ccccc2c1 [Example 70, 1-[(3-Methyl-butyl)-(naphthalene-2-sulfonyl)-amino]-cyclopentanecarboxylic acid hydroxyamide] | 0.94 | 0.212 | – | – |
| CC(=O)N(CCC(C)C)c1ccc2ccc(S(=O)(=O)N(CCC(C)C)[C@@H](C(=O)NO)C(C)C)cc2c1 [Example 71, 2-[{7-[Acetyl-(3-methyl-butyl)-amino]-naphthalene-2-sulfonyl}-(3-methyl-butyl)-amino]-N-hydroxy-3-methyl-butyramide] | > 30 | > 30 | – | – |
| O=C(NO)[C@H]1CC=CCN1S(=O)(=O)c1cnc2ccccc2c1 [Example 72, (R)-1-(Quinoline-3-sulfonyl)-1,2,3,6-tetrahydro-pyridine-2-carboxylic acid hydroxyamide] | 0.853 | 0.0957 | – | – |
| CC(C)(C)OC(=O)N1CCC([C@@H](NS(=O)(=O)c2ccc3ccccc3c2)C(=O)NO)CC1 [Example 74, 4-[Hydroxycarbamoyl-(naphthalene-2-sulfonylamino)-methyl]-piperidine-1-carboxylic acid tert-butyl ester] | 0.0004 | 0.0004 | – | – |
| COc1c(S(=O)(=O)N2CC=CC[C@@H]2C(=O)NO)ccc2ccccc12 [Example 78, (R)-1-(1-Methoxy-naphthalene-2-sulfonyl)-1,2,3,6-tetrahydro-pyridine-2-carboxylic acid hydroxyamide] | 0.0199 | 0.0021 | – | – |
| CC(C)CCN([C@@H](C(=O)NO)C1CCN(C(=O)OC(C)(C)C)CC1)S(=O)(=O)c1ccc2ccccc2c1 [Example 82, 4-{Hydroxycarbamoyl-[(3-methyl-butyl)-(naphthalene-2-sulfonyl)-amino]-methyl}-piperidine-1-carboxylic acid tert-butyl ester] | < 0.0003 | < 0.0003 | – | – |
| O=C(NO)[C@H]1[C@@H]2CCCC[C@@H](C2)N1S(=O)(=O)c1ccc2ccccc2c1 [Example 83, 7-(Naphthalene-2-sulfonyl)-7-aza-bicyclo[4.2.1]nonane-8-carboxylic acid hydroxyamide] | 0.77 | 0.135 | – | – |
| CC(C)CCOc1ccc2ccc(S(=O)(=O)N(CCC(C)C)[C@@H](C(=O)NO)C(C)C)cc2c1 [Example 86, (R)—N-Hydroxy-3-methyl-2-[[7-(3-methyl-butoxy)-naphthalene-2-sulfonyl]-(3-methyl-butyl)-amino]-butyramide] | > 10 | 3.25 | – | – |

The remaining lines, values ahead:

| IC50 (Gelatinase (MMP-2); [1]) [µM] | IC50 (Collagenase-3 (MMP-13); [2]) [µM] | IC50 (Gelatinase (MMP-2); read-out: IC50 (Gelatinase (MMP-2) inhibitory activity)) [µM] | IC50 (Collagenase-3 (MMP-13); read-out: IC50 (Collagenase-3 (MMP-13) inhibitory activity)) [µM] | SMILES |
| --- | --- | --- | --- | --- |
| 2.65 | 0.116 | – | – | CC(C)[C@H](C(=O)NO)N(CCOc1ccc(Cl)cc1)S(=O)(=O)c1ccc2ccccc2c1 [Example 58, (R)-2-[[2-(4-Chloro-phenoxy)-ethyl]-(naphthalene-2-sulfonyl)-amino]-N-hydroxy-3-methyl-butyramide] |
| 0.0228 | 0.0005 | – | – | CC(=O)Nc1ccc2ccc(S(=O)(=O)N(CCC(C)C)[C@@H](C(=O)NO)C(C)C)cc2c1 [Example 61, 2-[(7-Acetylamino-naphthalene-2-sulfonyl)-(3-methyl-butyl)-amino]-N-hydroxy-3-methyl-butyramide] |
| 3.89 | 0.138 | – | – | CC(C)[C@H](C(=O)NO)N(CCOc1cccc(Cl)c1)S(=O)(=O)c1ccc2ccccc2c1 [Example 62, N-(2-(3-chlorophenoxy)ethyl)-N-(naphthalene-2-sulfonyl)-D-valine hydroxamic acid] |
| 0.898 | 0.0161 | – | – | CC(C)[C@H](C(=O)NO)N(CCOc1ccccc1Cl)S(=O)(=O)c1ccc2ccccc2c1 [Example 64, N-(2-(2-chlorophenoxy)ethyl)-N-(naphthalene-2-sulfonyl)-D-valine hydroxamic acid] |
| 2.86 | 2.26 | – | – | CC(C)CCN(C(C)(C)C(=O)NO)S(=O)(=O)c1ccc2ccccc2c1 [Example 65, N-Hydroxy-2-methyl-2-[(3-methyl-butyl)-(naphthalene-2-sulfonyl)-amino]-propionamide] |
| 0.128 | 0.0073 | – | – | C=CCOc1ccc2cc(S(=O)(=O)N(CCC(C)C)[C@@H](C(=O)NO)C(C)C)ccc2c1 [Example 66, 2-[(6-Allyloxy-naphthalene-2-sulfonyl)-(3-methyl-butyl)-amino]-N-hydroxy-3-methyl-butyramide] |
| 0.976 | 0.0287 | – | – | CCOc1ccc2ccc(S(=O)(=O)N(Cc3cccnc3)[C@@H](C(=O)NO)C(C)C)cc2c1 [Example 68, 2-[(7-Ethoxy-naphthalene-2-sulfonyl)-pyridin-3-ylmethyl-amino]-N-hydroxy-3-methyl-butyramide] |
| 0.402 | 0.035 | – | – | CC(C)CCN(C1(C(=O)NO)CC1)S(=O)(=O)c1ccc2ccccc2c1 [Example 73, 1-[(3-Methyl-butyl)-(naphthalene-2-sulfonyl)-amino]-cyclopropanecarboxylic acid hydroxyamide] |
| 3.11 | 0.0673 | – | – | Cc1ccc(C)c(OCCN([C@@H](C(=O)NO)C(C)C)S(=O)(=O)c2ccc3ccccc3c2)c1C [Example 75, N-(2-(2,3,6-trimethylphenoxy)ethyl)-N-(naphthalene-2-sulfonyl)-D-valine hydroxamic acid] |
| 0.0518 | 0.0011 | – | – | COc1c(S(=O)(=O)N(CCC(C)C)[C@@H](C(=O)NO)C(C)C)ccc2ccccc12 [Example 79, (R)—N-Hydroxy-2-[(1-methoxy-naphthalene-2-sulfonyl)-(3-methyl-butyl)-amino]-3-methyl-butyramide] |
| 0.779 | 0.118 | 0.055 | ~0.113 | CC(C)CCN([C@@H](C(=O)NO)C(C)C)S(=O)(=O)c1ccc2ccccc2c1Cl [Example 80, 2-[(1-Chloro-naphthalene-2-sulfonyl)-(3-methyl-butyl)-amino]-N-hydroxy-3-methyl-butyramide] |
| > 1 | 0.0521 | – | – | CC(C)CCN([C@@H](C(=O)NO)C(C)C)S(=O)(=O)c1ccc2ccc(N)cc2c1 [Example 84, 2-[(7-Amino-naphthalene-2-sulfonyl)-(3-methyl-butyl)-amino]-N-hydroxy-3-methyl-butyramide] |
| 3.35 | 0.134 | – | – | Cc1ccc2ccc(S(=O)(=O)N(CCC(C)C)[C@@H](C(=O)NO)C(C)C)cc2c1 [Example 85, N-isoamyl-N-(6-methylnaphthalene-2-sulfonyl)-D-valine hydroxamic acid] |
